ChEMBL document CHEMBL3739348, “Novel pyrrole derivatives as selective CHK1 inhibitors: design, regioselective synthesis and molecular modeling” (Medchemcomm, 2015)

How the values were obtained:
[1] = molecular target: Tyrosine-protein kinase Fyn (Homo sapiens) (UniProt P06241); experiment: Inhibition of FYN (unknown origin) at 30 uM by microfluidic assay relative to control
[2] = molecular target: Mitogen-activated protein kinase 3 (Homo sapiens) (UniProt P27361); experiment: Inhibition of Erk1 (unknown origin) at 30 uM by microfluidic assay relative to control
Mitogen-activated protein kinase 3 (Homo sapiens), sequence (P27361 whole entry): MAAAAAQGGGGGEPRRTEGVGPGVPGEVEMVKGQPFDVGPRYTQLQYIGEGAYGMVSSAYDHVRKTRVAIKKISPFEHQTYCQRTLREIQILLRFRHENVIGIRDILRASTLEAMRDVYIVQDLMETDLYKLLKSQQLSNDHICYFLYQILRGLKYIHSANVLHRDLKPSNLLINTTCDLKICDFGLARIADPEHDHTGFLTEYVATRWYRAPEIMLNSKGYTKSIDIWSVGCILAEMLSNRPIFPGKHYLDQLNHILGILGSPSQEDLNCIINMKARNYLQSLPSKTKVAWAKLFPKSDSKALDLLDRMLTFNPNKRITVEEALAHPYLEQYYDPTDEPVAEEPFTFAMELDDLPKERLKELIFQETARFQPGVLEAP

[3] = molecular target: Hepatocyte growth factor receptor (Homo sapiens) (UniProt P08581); experiment: Inhibition of MET (unknown origin) at 30 uM by microfluidic assay relative to control
Hepatocyte growth factor receptor (Homo sapiens), sequence (P08581 whole entry): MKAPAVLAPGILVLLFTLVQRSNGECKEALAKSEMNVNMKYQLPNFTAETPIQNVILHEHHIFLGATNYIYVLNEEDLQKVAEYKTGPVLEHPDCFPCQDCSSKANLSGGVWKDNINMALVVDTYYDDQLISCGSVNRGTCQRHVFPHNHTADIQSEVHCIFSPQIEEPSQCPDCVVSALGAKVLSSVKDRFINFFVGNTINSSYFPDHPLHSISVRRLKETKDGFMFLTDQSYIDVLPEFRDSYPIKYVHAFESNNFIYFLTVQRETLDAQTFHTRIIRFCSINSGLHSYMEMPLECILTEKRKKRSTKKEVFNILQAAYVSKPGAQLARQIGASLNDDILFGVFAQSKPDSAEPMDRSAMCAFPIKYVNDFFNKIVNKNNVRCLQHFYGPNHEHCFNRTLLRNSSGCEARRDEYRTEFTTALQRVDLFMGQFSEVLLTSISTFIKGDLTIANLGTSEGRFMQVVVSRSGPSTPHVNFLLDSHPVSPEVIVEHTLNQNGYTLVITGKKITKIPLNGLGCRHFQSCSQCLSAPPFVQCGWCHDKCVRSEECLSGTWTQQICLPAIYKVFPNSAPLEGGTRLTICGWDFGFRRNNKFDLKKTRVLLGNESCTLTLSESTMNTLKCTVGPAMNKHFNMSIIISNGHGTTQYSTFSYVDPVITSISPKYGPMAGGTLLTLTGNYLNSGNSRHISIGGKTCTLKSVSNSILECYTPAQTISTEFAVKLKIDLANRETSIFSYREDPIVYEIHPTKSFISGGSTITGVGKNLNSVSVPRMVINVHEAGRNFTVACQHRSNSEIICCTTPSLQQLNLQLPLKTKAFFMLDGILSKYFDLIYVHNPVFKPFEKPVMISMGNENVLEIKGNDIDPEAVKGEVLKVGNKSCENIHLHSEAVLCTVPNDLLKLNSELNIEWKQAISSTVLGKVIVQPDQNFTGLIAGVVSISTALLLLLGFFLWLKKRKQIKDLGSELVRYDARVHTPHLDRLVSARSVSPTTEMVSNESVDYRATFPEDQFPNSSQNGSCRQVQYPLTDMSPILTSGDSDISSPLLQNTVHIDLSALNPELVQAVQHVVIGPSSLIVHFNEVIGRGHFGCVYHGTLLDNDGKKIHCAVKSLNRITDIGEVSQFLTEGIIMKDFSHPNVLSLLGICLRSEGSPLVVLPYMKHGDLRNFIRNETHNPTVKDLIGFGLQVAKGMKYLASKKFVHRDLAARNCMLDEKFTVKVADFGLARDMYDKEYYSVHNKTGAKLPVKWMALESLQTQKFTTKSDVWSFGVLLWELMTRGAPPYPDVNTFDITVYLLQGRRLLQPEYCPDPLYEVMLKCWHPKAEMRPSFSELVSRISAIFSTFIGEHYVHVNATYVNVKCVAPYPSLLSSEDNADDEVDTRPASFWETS

[4] = molecular target: Tyrosine-protein kinase ABL1 (Homo sapiens) (UniProt P00519); experiment: Inhibition of ABL (unknown origin) at 30 uM by microfluidic assay relative to control
Tyrosine-protein kinase ABL1 (Homo sapiens), sequence (P00519 whole entry): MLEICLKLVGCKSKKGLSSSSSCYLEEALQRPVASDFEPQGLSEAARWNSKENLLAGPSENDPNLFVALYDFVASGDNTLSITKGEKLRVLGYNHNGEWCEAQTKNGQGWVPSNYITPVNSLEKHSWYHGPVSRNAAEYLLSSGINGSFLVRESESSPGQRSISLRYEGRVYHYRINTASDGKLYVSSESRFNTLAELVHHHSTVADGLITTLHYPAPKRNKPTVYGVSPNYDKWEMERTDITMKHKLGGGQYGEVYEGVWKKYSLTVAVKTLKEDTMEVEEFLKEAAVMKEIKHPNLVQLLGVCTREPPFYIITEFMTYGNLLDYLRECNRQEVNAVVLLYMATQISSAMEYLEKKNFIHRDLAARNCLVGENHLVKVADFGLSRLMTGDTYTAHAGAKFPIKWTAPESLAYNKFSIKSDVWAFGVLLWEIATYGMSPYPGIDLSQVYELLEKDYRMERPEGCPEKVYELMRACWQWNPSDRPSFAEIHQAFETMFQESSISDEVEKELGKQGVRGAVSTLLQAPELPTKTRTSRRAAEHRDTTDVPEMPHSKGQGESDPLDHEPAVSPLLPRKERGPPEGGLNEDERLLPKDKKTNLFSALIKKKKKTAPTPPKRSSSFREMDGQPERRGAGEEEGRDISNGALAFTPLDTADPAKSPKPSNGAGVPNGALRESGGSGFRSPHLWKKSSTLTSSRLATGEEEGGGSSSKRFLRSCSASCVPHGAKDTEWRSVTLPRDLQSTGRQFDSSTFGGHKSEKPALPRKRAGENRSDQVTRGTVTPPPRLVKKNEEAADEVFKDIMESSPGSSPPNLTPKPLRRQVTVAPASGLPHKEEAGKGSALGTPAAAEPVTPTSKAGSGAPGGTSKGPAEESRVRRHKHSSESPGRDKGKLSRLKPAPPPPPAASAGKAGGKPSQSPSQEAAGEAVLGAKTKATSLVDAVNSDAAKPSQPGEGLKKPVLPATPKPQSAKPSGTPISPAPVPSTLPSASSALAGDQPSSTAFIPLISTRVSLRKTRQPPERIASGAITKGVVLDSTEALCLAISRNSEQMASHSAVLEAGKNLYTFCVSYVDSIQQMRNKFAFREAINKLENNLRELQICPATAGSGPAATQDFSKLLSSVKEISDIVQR

[5] = molecular target: Tyrosine-protein kinase Lyn (Homo sapiens) (UniProt P07948); experiment: Inhibition of LYN (unknown origin) at 30 uM by microfluidic assay relative to control
[6] = molecular target: Tyrosine-protein kinase Lck (Homo sapiens) (UniProt P06239); experiment: Inhibition of LCK (unknown origin) at 30 uM by microfluidic assay relative to control
[7] = molecular target: Glycogen synthase kinase-3 (Homo sapiens) (UniProt P49840+P49841); experiment: Inhibition of GSK3 (unknown origin) at 30 uM by microfluidic assay relative to control; format: protein assay
[8] = molecular target: Insulin receptor (Homo sapiens) (UniProt P06213); experiment: Inhibition of InsR (unknown origin) at 30 uM by microfluidic assay relative to control
[9] = molecular target: Proto-oncogene tyrosine-protein kinase Src (Homo sapiens) (UniProt P12931); experiment: Inhibition of SRC (unknown origin) at 30 uM by microfluidic assay relative to control
[10] = molecular target: Protein kinase C (PKC) (Homo sapiens) (UniProt O94806+P41743+P17252+P05129+Q05655+P05771+Q05513+Q02156+P24723+Q15139+Q04759); experiment: Inhibition of PKC (unknown origin) at 30 uM by microfluidic assay relative to control
[11] = molecular target: Mitogen-activated protein kinase 14 (Homo sapiens) (UniProt Q16539); experiment: Inhibition of p38a (unknown origin) at 30 uM by microfluidic assay relative to control
Mitogen-activated protein kinase 14 (Homo sapiens), sequence (Q16539 whole entry): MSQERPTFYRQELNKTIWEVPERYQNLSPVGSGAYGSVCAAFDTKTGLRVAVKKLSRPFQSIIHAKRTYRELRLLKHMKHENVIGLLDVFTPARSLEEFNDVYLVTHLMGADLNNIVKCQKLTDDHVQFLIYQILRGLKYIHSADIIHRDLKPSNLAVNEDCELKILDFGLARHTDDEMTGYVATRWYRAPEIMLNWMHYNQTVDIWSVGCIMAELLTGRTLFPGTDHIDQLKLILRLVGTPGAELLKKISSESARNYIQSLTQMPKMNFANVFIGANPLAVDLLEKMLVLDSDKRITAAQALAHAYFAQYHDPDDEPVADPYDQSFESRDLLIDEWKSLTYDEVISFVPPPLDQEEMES

[12] = molecular target: Epidermal growth factor receptor (Homo sapiens, UniProt P00533); experiment: Inhibition of EGFR (unknown origin) by microfluidic assay relative to control
Epidermal growth factor receptor, sequence (P00533 whole entry): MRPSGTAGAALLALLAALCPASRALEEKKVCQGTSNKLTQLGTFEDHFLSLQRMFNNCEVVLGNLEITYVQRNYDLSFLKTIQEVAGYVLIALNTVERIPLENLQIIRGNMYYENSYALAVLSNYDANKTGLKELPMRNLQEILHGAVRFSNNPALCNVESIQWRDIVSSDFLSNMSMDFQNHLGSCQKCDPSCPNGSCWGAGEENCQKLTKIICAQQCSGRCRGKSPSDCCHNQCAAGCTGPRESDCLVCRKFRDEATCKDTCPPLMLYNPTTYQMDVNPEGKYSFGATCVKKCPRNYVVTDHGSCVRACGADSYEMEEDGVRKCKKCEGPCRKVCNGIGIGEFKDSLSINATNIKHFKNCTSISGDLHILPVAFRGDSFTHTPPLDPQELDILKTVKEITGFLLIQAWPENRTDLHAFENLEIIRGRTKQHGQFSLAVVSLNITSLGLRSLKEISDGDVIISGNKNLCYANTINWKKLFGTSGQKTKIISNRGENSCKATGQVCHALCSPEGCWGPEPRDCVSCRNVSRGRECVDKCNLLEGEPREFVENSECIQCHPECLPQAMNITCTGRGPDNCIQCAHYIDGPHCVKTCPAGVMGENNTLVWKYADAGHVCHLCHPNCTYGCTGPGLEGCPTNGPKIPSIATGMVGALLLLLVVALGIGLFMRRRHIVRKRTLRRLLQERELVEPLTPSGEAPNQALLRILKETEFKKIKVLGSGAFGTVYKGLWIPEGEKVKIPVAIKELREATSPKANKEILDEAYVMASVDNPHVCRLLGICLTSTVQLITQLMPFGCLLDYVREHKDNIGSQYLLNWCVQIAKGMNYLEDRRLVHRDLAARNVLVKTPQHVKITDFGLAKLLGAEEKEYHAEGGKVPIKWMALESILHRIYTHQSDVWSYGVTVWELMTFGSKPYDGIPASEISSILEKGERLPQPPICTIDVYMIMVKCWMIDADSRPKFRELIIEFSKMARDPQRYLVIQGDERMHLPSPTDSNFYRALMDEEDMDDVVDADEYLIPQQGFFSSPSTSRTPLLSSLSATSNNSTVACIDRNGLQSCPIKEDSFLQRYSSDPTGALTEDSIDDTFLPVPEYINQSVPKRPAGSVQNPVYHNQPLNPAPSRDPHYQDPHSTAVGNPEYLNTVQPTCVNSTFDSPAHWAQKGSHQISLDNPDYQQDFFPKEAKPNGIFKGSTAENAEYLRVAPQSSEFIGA

[13] = molecular target: T1, Serine/threonine-protein kinase Chk1 (Homo sapiens, UniProt O14757); experiment: Inhibition of CHK1 (unknown origin) by microfluidic assay relative to control
T1 sequence (O14757 whole entry): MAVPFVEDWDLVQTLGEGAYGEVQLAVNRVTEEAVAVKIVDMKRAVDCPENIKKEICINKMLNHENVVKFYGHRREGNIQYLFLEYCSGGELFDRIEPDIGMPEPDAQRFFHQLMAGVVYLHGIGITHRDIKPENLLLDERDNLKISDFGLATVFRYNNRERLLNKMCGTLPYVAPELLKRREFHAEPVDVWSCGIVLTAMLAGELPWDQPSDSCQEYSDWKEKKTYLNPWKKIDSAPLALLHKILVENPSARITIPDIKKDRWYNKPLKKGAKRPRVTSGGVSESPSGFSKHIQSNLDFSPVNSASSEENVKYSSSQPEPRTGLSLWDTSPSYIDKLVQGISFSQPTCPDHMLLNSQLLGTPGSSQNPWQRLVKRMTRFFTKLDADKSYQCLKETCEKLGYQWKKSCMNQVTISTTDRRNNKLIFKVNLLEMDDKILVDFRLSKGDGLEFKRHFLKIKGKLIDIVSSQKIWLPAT

[14] = molecular target: Mitogen-activated protein kinase 1 (Homo sapiens) (UniProt P28482); experiment: Inhibition of Erk2 (unknown origin) at 30 uM by microfluidic assay relative to control
[15] = molecular target: T2, Serine/threonine-protein kinase Chk1 (Homo sapiens) (UniProt O14757); experiment: Inhibition of CHK1 (unknown origin) at 30 uM by microfluidic assay relative to control
T2 sequence (whole entry): T1 sequence (O14757 whole entry)

Tyrosine-protein kinase Fyn (Homo sapiens), sequence (P06241 2-537 limits assumed): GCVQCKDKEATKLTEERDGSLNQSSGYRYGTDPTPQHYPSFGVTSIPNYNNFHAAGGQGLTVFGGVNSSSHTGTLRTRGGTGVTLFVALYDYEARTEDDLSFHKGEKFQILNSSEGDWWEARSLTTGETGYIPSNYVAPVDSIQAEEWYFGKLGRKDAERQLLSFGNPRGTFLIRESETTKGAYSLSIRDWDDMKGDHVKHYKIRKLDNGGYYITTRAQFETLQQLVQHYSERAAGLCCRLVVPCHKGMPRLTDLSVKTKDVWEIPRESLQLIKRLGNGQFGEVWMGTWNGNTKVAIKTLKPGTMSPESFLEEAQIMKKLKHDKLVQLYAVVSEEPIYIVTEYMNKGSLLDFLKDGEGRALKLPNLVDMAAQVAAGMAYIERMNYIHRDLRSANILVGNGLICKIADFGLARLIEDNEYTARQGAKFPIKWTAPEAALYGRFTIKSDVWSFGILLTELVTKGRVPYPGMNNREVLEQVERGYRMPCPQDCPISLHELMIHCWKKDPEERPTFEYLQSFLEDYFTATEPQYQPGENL

| inhibition [1] | inhibition [2] | inhibition [3] | inhibition [4] | inhibition [5] | inhibition [6] | inhibition [7] | inhibition [8] | inhibition [9] | inhibition [10] | inhibition [11] | IC50 [12] | IC50 [13] | inhibition [14] | inhibition [15] | SMILES |
| --- | --- | --- | --- | --- | --- | --- | --- | --- | --- | --- | --- | --- | --- | --- | --- |
| 23% | 4% | 32% | 3% | 21% | 32% | 3% | 2% | 32% | 32% | 24% | 3670 nM | 450 nM | 3% | 90% | Cc1[nH]c(-c2ccccc2)c(-c2ccccc2)c1C(=O)c1coc2ccc(O)cc12 |
| 2% | 3% | 32% | 2% | 3% | 22% | 12% | 2% | 21% | 33% | 3% | 4670 nM | 120 nM | 21% | 100% | CC(=O)c1nn(-c2ccccc2)cc1C(=O)c1c(C)[nH]c(-c2ccccc2)c1-c1ccccc1 |
| 21% | 5% | 22% | 2% | 33% | 34% | 2% | 3% | 12% | 65% | 32% | 2890 nM | 780 nM | 4% | 80% | Cc1[nH]c(-c2ccccc2)c(-c2ccccc2)c1-c1ccc(NC(=O)c2ccccc2)c(=O)o1 |
| 12% | 6% | 5% | 1% | 3% | 43% | 2% | 1% | 43% | 13% | 4% | 3890 nM | 700 nM | 32% | 83% | Cc1[nH]c(-c2ccccc2)c(-c2ccccc2)c1-c1nnc(C)c2nn(-c3ccccc3)cc12 |
| 21% | 7% | 6% | 2% | 5% | 23% | 13% | 2% | 23% | 12% | 2% | 3220 nM | 670 nM | 32% | 85% | CCOC(=O)c1nn(-c2ccccc2)cc1C(=O)c1c(C)[nH]c(-c2ccccc2)c1-c1ccccc1 |
| 21% | 7% | 45% | 3% | 24% | 44% | 3% | 4% | 12% | 67% | 12% | 2560 nM | 910 nM | 35% | 78% | Cc1[nH]c(-c2ccccc2)c(-c2ccccc2)c1C(=O)c1cn(-c2ccccc2)nc1-c1ccccc1 |
